# Results: US10376499B2, “Combination therapy for treatment of resistant bacterial infections” (priority 2014, dated 2019)
# Tests used:
# A. baumannii [1] = test: MIC by broth microdilution (CLSI), panel of 60 A. baumannii clinical isolates (Example 1); conditions: Acinetobacter baumannii
# A. baumannii [2] = test: MIC, 20 diverse recent strains of A. baumannii (Example 10); format: cell-based, Acinetobacter baumannii; conditions: N 20 A. baumannii strains
# Enterobacter cloacae = test: MIC, recent Enterobacteriaceae clinical isolates: Enterobacter cloacae (Examples 7, 11); format: cell-based
# Klebsiella pneumoniae = test: MIC, recent Enterobacteriaceae clinical isolates: Klebsiella pneumoniae (Examples 7, 11)
# Citrobacter spp = test: MIC, recent Enterobacteriaceae clinical isolates: Citrobacter spp (Examples 7, 11); format: cell-based
# Enterobacteriaceae = test: organism not typed; format: cell-based
# A. baumannii [3] = test: MIC90 of common antibiotics+compound 1, 196 contemporary clinical isolates of A. baumannii (Example 4); conditions: B-lactam + Cmpd 1 (4 μg/mL)
# A. baumannii [4] = test: Neutropenic mouse thigh and lung infection models; conditions: neutropenic CD-1 mice, subcutaneous q3h, sulbactam+compound 1 at 4:1 ratio, 24 h, isolate containing AmpC, OXA-66, OXA-72, TEM-1, FIG. 4
compound,measurement,setting,value
"CC1(C)[C@H](C(=O)O)N2C(=O)C[C@H]2S1(=O)=O [Sulbactam, (2S,5R)-3,3-dimethyl-7-oxo-4-thia-1-azabicyclo[3.2.0]heptane-2-carboxylic acid 4,4-dioxide]",MIC,"A. baumannii [1]; strain ARC5073, OXA-23, TEM-1, OXA-64, PER-1",16 µg/mL
same,MIC,"A. baumannii [1]; strain ARC5074, GES*, TEM-1, OXA-51",64 µg/mL
same,MIC,"A. baumannii [1]; strain ARC5075, SHV-5, OXA-113",16 µg/mL
same,MIC,"A. baumannii [1]; strain ARC5076, TEM-1, OXA-23, OXA-66",32 µg/mL
same,MIC,"A. baumannii [1]; strain ARC5077, OXA*, OXA-72",32 µg/mL
same,MIC,"A. baumannii [1]; strain ARC5079, OXA-72, OXA-65",32 µg/mL
same,MIC,"A. baumannii [1]; strain ARC5080, OXA-71, OXA-40",32 µg/mL
same,MIC,"A. baumannii [1]; strain ARC5082, OXA-66, OXA-23",64 µg/mL
same,MIC,"A. baumannii [1]; strain ARC5083, OXA-66, OXA-23",16 µg/mL
same,MIC,"A. baumannii [1]; strain ARC5084, IMP-4(B), OXA-58, OXA-65",4 µg/mL
same,MIC,"A. baumannii [1]; strain ARC5085, OXA*, TEM-1",32 µg/mL
same,MIC,"A. baumannii [1]; strain ARC5086, OXA*, TEM-1, OXA-72, OXA-66",32 µg/mL
same,MIC,"A. baumannii [1]; strain ARC5087, OXA-66, OXA-23",32 µg/mL
same,MIC,"A. baumannii [1]; strain ARC5088, OXA-20, OXA-58, OXA-66",16 µg/mL
same,MIC,"A. baumannii [1]; strain ARC5089, PER*, TEM-1, OXA-23, OXA-66",32 µg/mL
same,MIC50,A. baumannii [2],16 µg/mL
same,MIC90,A. baumannii [2],64 µg/mL
same,MIC Max,A. baumannii [2],> 64 µg/mL
same,MIC Min,A. baumannii [2],2 µg/mL
same,MIC50,Enterobacter cloacae,64 µg/mL
same,MIC,"Enterobacter cloacae; Enterobacter cloacae ARC4438, AmpC+",128 µg/mL
same,MIC,"Enterobacter cloacae; Enterobacter cloacae ARC4444, AmpC+, MIR-8[I175L]",64 µg/mL
same,MIC,"Enterobacter cloacae; Enterobacter cloacae ARC4458, AmpC+, ACT-2[V312M]",64 µg/mL
same,MIC,"Enterobacter cloacae; Enterobacter cloacae ARC4473, SHV-5+, AmpC+, DHA-1+, TEM-1+",128 µg/mL
same,MIC,"Enterobacter cloacae; Enterobacter cloacae ARC4489, AmpC+",128 µg/mL
same,MIC,"Enterobacter cloacae; Enterobacter cloacae ARC4492, AmpC+",256 µg/mL
same,MIC90,Enterobacter cloacae; N 10,128 µg/mL
same,MIC range,Enterobacter cloacae; N 10,64 to 256 µg/mL
same,MIC50,Klebsiella pneumoniae,64 µg/mL
same,MIC90,Klebsiella pneumoniae,> 256 µg/mL
same,MIC,"Klebsiella pneumoniae; Klebsiella pneumoniae ARC4420, SHV-11, SHV-12, DHA-1, OXA-1",128 µg/mL
same,MIC,"Klebsiella pneumoniae; Klebsiella pneumoniae ARC4427, SHV-1, OXA-1",> 256 µg/mL
same,MIC,"Klebsiella pneumoniae; Klebsiella pneumoniae ARC4451, SHV-11, KPC-3",> 256 µg/mL
same,MIC,"Klebsiella pneumoniae; Klebsiella pneumoniae ARC4457, SHV-11, DHA-1",64 µg/mL
same,MIC,"Klebsiella pneumoniae; Klebsiella pneumoniae ARC4460, SHV-11, CTX-M15, OXA-1, NDM-1",> 256 µg/mL
same,MIC,"Klebsiella pneumoniae; Klebsiella pneumoniae ARC4467, SHV-33, TEM-1, OXA-1, DHA-1",64 µg/mL
same,MIC,"Klebsiella pneumoniae; Klebsiella pneumoniae ARC4468, SHV-1",64 µg/mL
same,MIC,"Klebsiella pneumoniae; Klebsiella pneumoniae ARC4476, SHV-11, KPC-2, OXA-9[W117*]",> 256 µg/mL
same,MIC,"Klebsiella pneumoniae; Klebsiella pneumoniae ARC4482, SHV-27[A122V], OXA-1",32 µg/mL
same,MIC,"Klebsiella pneumoniae; Klebsiella pneumoniae ARC4486, SHV-11, DHA-1, OXA-1[E69K]",128 µg/mL
same,MIC,"Klebsiella pneumoniae; Klebsiella pneumoniae ARC4488, SHV-11, CTX-M15, OXA-1, TEM-1",64 µg/mL
same,MIC,"Klebsiella pneumoniae; Klebsiella pneumoniae ARC4490, SHV-11, CTX-M15, KPC-2, OXA-1",256 µg/mL
same,MIC50,Citrobacter spp; Citrobacter,256 µg/mL
same,MIC90,Citrobacter spp; Citrobacter,> 256 µg/mL
same,MIC,"Citrobacter spp; Citrobacter braakii ARC3660, CTX-M-15",32 µg/mL
same,MIC,"Citrobacter spp; Citrobacter freundii ARC3522, AmpC, TEM-1, CMY65",> 256 µg/mL
same,MIC,"Citrobacter spp; Citrobacter freundii ARC3883, KPC-2",256 µg/mL
same,MIC,"Citrobacter spp; Citrobacter freundii ARC3884, KPC-2",256 µg/mL
same,MIC,"Citrobacter spp; Citrobacter freundii ARC3885, AmpH, TEM-1, SHV-5, CMY-6, CMY-13",256 µg/mL
same,MIC,"Citrobacter spp; Citrobacter koseri ARC2001, ESBL",64 µg/mL
same,MIC,"Citrobacter spp; Citrobacter koseri ARC2002, ESBL",64 µg/mL
same,MIC50,Enterobacteriaceae,64 µg/mL
same,MIC90,Enterobacteriaceae,256 µg/mL
same,MIC90,A. baumannii [3],2 µg/mL
same,efficacy (mean delta log CFU),A. baumannii [4],failed to show efficacy
